# Data published in US20250009763A1, “METHODS FOR EXTENDING LIFESPAN AND/OR DELAYING AGING” (priority 2023, published 2025).
# Key:
# [1] = tested on: yeast MEP strain ZHY2; assay: Mother enrichment program (MEP) assay; assay type: cell-based, Saccharomyces cerevisiae; conditions: 0-100 μM PN6, particularly above 10 μM; FIGS. 1A-1D
# Experimental: The MEP strain ZHY2 cells were cultured at 30° C. overnight in liquid yeast 5 extract peptone dextrose (YEPD) medium containing 0, 0.1, 0.5, 2, 10, 25, 50, or 100 μM PN6, and the cultures were diluted to A600=0.25 and recovered to the log phase. Cultures were counted and inoculated in culture tubes at a cell density of 2×10^3 cells/ml. Estradiol was added to the mixtures to achieve a final concentration of 1 μM, and the mixtures were incubated in a roller drum at 50 rpm and 30° C. for 60 hours. Each group was monitored by harvesting samples at the indicated time points. The collected samples were washed and plated in solid YEPD media without estradiol, and the viability is reported as CFUs per 500 μl. The software OpenCFU 3.8 was used to calculate colonies.
# [2] = tested on: sir2Δfob1Δ mutant strain of yeast; assay: RLS of sir2Δfob1Δ double deletion strain; assay type: cell-based, Saccharomyces cerevisiae; conditions: 25 μM; FIG. 2A
# Experimental: The micromanipulation of the yeast cells was carried out as follows. Prior to analysis, yeast strains BY4741 (WT), BY4741-fob1Δ (fob1Δ), or BY4741-sir2Δfob1Δ (sir2Δfob1Δ) were plated onto fresh solid YEPD medium and grown at 30° C. for two days. Then, individual colonies were picked and grown in solid YEPD media containing: (1) dimethyl sulfoxide (DMSO), (2) 10, 25, or 50 μM PN6, or (3) 25 μM β-sitosterol at 30° C. overnight, and a small number of yeast cells were then plated onto a fresh YEPD plate for lifespan analysis. After overnight growth on the lifespan plates, the cells were arrayed on the plate using a micromanipulator and allowed to grow for approximately 3 hours. Virgin daughter cells were selected and subjected to lifespan analysis. In the lifespan experiments, the plates were incubated at 30° C. during the day and stored at 4° C. overnight. Each experiment consisted of more than 50 mother cells and was independently repeated three times.
# [3] = tested on: tor1Δ deletion strain of yeast; assay: RLS of tor1Δ deletion strain; assay type: cell-based, Saccharomyces cerevisiae; conditions: data not shown
# [4] = molecular target: T1, SIRT1 (Homo sapiens, UniProt Q96EB6); assay: Acetylation of p53 (K382) via UV irradiation, western blot, IMR90 cells; assay type: cell-based; conditions: FIGS. 2G-2H
# T1 construct: endogenous in cells; host or cells: U2OS cells; IMR90 cells
# T1 sequence (Q96EB6 1-747): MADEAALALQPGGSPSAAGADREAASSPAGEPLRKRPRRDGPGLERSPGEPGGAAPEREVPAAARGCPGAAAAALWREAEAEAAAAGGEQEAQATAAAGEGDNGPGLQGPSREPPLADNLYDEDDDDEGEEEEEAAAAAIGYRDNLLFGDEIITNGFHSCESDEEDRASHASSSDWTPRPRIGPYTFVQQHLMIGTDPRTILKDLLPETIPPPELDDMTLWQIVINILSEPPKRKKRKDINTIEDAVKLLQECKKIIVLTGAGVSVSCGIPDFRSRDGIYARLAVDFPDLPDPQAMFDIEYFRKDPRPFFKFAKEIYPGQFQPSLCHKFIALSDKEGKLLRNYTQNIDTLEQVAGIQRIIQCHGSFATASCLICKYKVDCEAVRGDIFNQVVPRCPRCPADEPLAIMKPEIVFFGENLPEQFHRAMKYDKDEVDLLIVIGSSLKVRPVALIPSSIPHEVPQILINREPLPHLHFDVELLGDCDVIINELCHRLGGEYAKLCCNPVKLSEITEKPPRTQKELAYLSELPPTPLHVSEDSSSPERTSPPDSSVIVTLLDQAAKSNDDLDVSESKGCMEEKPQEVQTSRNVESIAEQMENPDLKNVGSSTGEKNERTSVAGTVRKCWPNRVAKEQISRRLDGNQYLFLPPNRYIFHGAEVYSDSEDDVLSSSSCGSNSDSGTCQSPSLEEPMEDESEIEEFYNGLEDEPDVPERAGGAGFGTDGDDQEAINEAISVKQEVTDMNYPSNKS
# Experimental: U2OS cells (1.2×10^5 cells/dish) or IMR90 cells (3.0×10^5 cells/dish) were seeded into a 3.5 cm culture dish, and incubated with 0, 10, 25, 50, or 100 μM PN6 for 16 hours, before subjected to UVB irradiation at 7.5 mJ/m^2 (for U2OS cells) or 5.0 mJ/m^2 (for IMR90 cells) for 4 hours.
# Cells were harvested with a 1.25× Laemmli buffer and lysed in RIPA lysis buffer containing 1% of Triton X-100 and a protease inhibitor cocktail, and total protein concentrations were measured with a protein assay kit. Proteins in the samples of the lysates with the same amounts of total protein were separated by sodium dodecyl sulfate polyacrylamide gel electrophoresis (SDS-PAGE) (10% polyacrylamide gels) and analyzed by immunoblotting. Primary antibodies against p53ac (K382) (1:1,000), p21 (1:1,000), and 3-actin (1:200,000) were applied to detect the corresponding proteins. Horseradish peroxidase (HRP)-conjugated secondary antibodies against mouse IgG were then incubated with the membranes, and proteins were visualized by chemiluminescence according to the manufacturer's instructions. Protein quantification was performed by software.
# [5] = tested on: aged C57BL/6J mice; assay: Visible changes in appearance of aged mice; assay type: in vivo, mouse; conditions: chow containing 50 mg/kg PN6
# Experimental: All animal procedures were conducted under protocols (Protocol #CGU108-134) that complied with relevant regulations and approved by Research Guidelines for the Care and Use of Laboratory Animals, Chang Guan University. Male C57BL/6J male mice (at 34 weeks of age) obtained from National Laboratory Animal Center (NLAC) were maintained at 23±1° C. and at humidity of 45-70% with a 12 hour dark/light cycle (7:00 am/pm lights on/off). After reaching 50 weeks of age, the mice were randomly divided into two groups: Group I (SD), fed a standard rodent chow (n=27); and Group II (PN6), fed a standard rodent chow containing 50 mg/kg PN6 (n=10). Animals had ad libitum access to food and water throughout the study (the mice were sacrificed at 131 weeks of age), during which their body weight and food intake were measured weekly.
# [6] = tested on: aged C57BL/6J mice; assay: Metabolic breath analysis test; assay type: in vivo, mouse; conditions: versus SD
# Experimental: The metabolic breath analysis test was carryout out using the OxyletPro System. The male C57BL/6J mice fed a standard rodent chow with or without 50 mg/kg PN6 for 22 weeks (at 72 weeks of age; mid-term) were placed in the metabolic cages of the OxyletPro System for a 24-hour habituation period before actual recordings and remained in the cages for the following 48 hours. The OxyletPro System was equipped with an air supply and switching unit that provided independent flow control to the cage and collected the products produced therein. The gas analyzer was connected in tandem to the OxyletPro System for O2 and CO2 concentration analyses, from which the oxygen consumption (VO2), the carbon dioxide production (VCO2), and the energy expenditure (EE) were automatically calculated. SD, n=12; PN6, n=7.
structure (smiles),measurement,setting,value
"CCC(CC[C@@H](C)C1CCC2C3CC(=O)[C@H]4C[C@@H](O)CC[C@]4(C)C3CC[C@@]21C)C(C)C (stereo in doubt) [PN6, (24S)-3β-hydroxy-5α-stigmastan-6-one]",viability of yeast ZHY2,[1],increased proportionally with the concentration of PN6
same,extension of lifespan of sir2Δfob1Δ mutant strain,[2],unable to extend the lifespan
same,ability to increase yeast RLS upon deletion of the TOR1 gene,[3],not affected
same,SIRT1 activity / acetylation of P53 at K382,[4],increased SIRT1 activity to reverse acetylation of P53 at K382
same,Hair graying,[5],25%
same,Kyphosis,[5],13%
same,Muscle weakness,[5],13%
same,rate of O2 consumption,[6]; FIG. 4L,significantly higher
same,rate of CO2 elimination,[6]; FIG. 4M,significantly higher
same,respiratory quotient,[6]; FIG. 4N,higher
same,energy expenditure,[6]; FIG. 4O,higher
